Read-outs that look alike come from different tables or passages of the source. Marks after values point to notes of the source that are not given here.
Assays:
L 1210 leukemia cells = format: in vivo
[1] = cited from earlier work
[2] = 11.6 mg/kg × 2 i.p., dispersion in lipiodol, oleic acid moiety two times stoichiometric amount, Table III
[3] = L1210-CDF1 mice, dispersion in lipiodol
[4] = 31.5 mg/kg × 2 i.p. in lipiodol, Table III
[5] = 157 mg/kg × 2 i.p. in lipiodol, Table III
[6] = 787 mg/kg, administered only one time, i.p. in lipiodol, Table III
[7] = 57 mg/kg × 2 i.p. in lipiodol, Table III
[8] = 171 mg/kg × 2 i.p. in lipiodol, Table III
[9] = 855 mg/kg × 2 i.p. in lipiodol, Table III
[10] = 25 mg/kg × 2 i.p. in lipiodol, Table I
[11] = 126 mg/kg × 2 i.p. in lipiodol, Table I
[12] = 630 mg/kg × 2 i.p. in lipiodol, Table I

SMILES: N.N.[Cl][Pt][Cl] [CDDP, Cis-dichlorodiammine platinum (II), reference compound]
- CR (mice completely cured / total mice tested) (L 1210 leukemia cells; [2]): 0/5
- T/C (mean survival time treated / control) (L 1210 leukemia cells; [2]): 182
- MST (mean survival time) (L 1210 leukemia cells; 11.6 mg/kg × 2 i.p., dispersion in lipiodol, oleic acid moiety two times stoichiometric amount, Table III control MST 8.5): 15.5
- T/C (mean survival time treated / control) (L 1210 leukemia cells; 58 mg/kg × 2 i.p., dispersion in lipiodol, oleic acid moiety two times stoichiometric amount, Table III): Toxic
- MST (mean survival time) (L 1210 leukemia cells; 58 mg/kg × 2 i.p., dispersion in lipiodol, oleic acid moiety two times stoichiometric amount, Table III control MST 8.5): 4.0
- complete recovery at rather low dose (L 1210 leukemia cells; [3]): complete recovery is not observed

SMILES: NC1CCCCC1N.[Cl][Pt][Cl] (stereo not drawn) [DACHP, Dichloro cyclohexane-1,2-diammine platinum (II), reference compound]
- T/C (mean survival time treated / control) (L 1210 leukemia cells; 22 mg/kg × 2 i.p., dispersion in lipiodol, oleic acid moiety two times stoichiometric amount, Table III): Toxic
- MST (mean survival time) (L 1210 leukemia cells; 22 mg/kg × 2 i.p., dispersion in lipiodol, oleic acid moiety two times stoichiometric amount, Table III control MST 8.5): 7.0
- T/C (mean survival time treated / control) (L 1210 leukemia cells; 110 mg/kg × 2 i.p., dispersion in lipiodol, oleic acid moiety two times stoichiometric amount, Table III): Toxic
- MST (mean survival time) (L 1210 leukemia cells; 110 mg/kg × 2 i.p., dispersion in lipiodol, oleic acid moiety two times stoichiometric amount, Table III control MST 8.5): 4.0
- toxicity when administered in a high dose (L 1210 leukemia cells; high dose, L1210-CDF1 mice, i.p. in lipiodol): high toxicity
- complete recovery at rather low dose (L 1210 leukemia cells; [3]): complete recovery is not observed

SMILES: CCCCCCCCCCCCCCCCCCCC(=O)[O][Pt][O]C(=O)CCCCCCCCCCCCCCCCCCC.NC1CCCCC1N [DACHPt(II)-(Ara)2]
- T/C (mean survival time treated / control) (L 1210 leukemia cells; 73 mg/kg × 2 i.p. in lipiodol, Table II): 211
- MST (mean survival time) (L 1210 leukemia cells; 73 mg/kg × 2 i.p. in lipiodol, Table II control MST 9.5): 20
- T/C (mean survival time treated / control) (L 1210 leukemia cells; 225 mg/kg × 2 i.p. in lipiodol, Table II): 600
- MST (mean survival time) (L 1210 leukemia cells; 225 mg/kg × 2 i.p. in lipiodol, Table II control MST 9.5): 60
- T/C (mean survival time treated / control) (L 1210 leukemia cells; 1127 mg/kg × 2 i.p. in lipiodol, Table II): Toxic
- MST (mean survival time) (L 1210 leukemia cells; 1127 mg/kg × 2 i.p. in lipiodol, Table II control MST 9.5): 7.0

SMILES: CCCCCCCCCCCCCCCCCCCCCC(=O)[O][Pt][O]C(=O)CCCCCCCCCCCCCCCCCCCCC.NC1CCCCC1N [DACHPt(II)-(Beh)2]
- T/C (mean survival time treated / control) (L 1210 leukemia cells; 80 mg/kg × 2 i.p. in lipiodol, Table III): 212
- MST (mean survival time) (L 1210 leukemia cells; 80 mg/kg × 2 i.p. in lipiodol, Table III control MST 8.5): 18.0
- T/C (mean survival time treated / control) (L 1210 leukemia cells; 1195 mg/kg, administered only one time, i.p. in lipiodol, Table III): Toxic
- MST (mean survival time) (L 1210 leukemia cells; 1195 mg/kg, administered only one time, i.p. in lipiodol, Table III control MST 8.5): 2.0*^1

SMILES: CCCCCCCCCC(=O)[O][Pt]1([O]C(=O)CCCCCCCCC)[NH]C2CCCCC2[NH]1 (stereo not drawn) [DACHPt(II)-(Cap)2]
- CR (mice completely cured / total mice tested) (L 1210 leukemia cells; [4]): 0/6
- T/C (mean survival time treated / control) (L 1210 leukemia cells; [4]): 133
- MST (mean survival time) (L 1210 leukemia cells; 31.5 mg/kg × 2 i.p. in lipiodol, Table III control MST 8.5): 12.0
- CR (mice completely cured / total mice tested) (L 1210 leukemia cells; [5]): 2/6
- T/C (mean survival time treated / control) (L 1210 leukemia cells; [5]): Toxic
- CR (mice completely cured / total mice tested) (L 1210 leukemia cells; [6]): 0/6
- T/C (mean survival time treated / control) (L 1210 leukemia cells; [6]): 111
- MST (mean survival time) (L 1210 leukemia cells; 787 mg/kg, administered only one time, i.p. in lipiodol, Table III control MST 8.5): 10.0*^1

SMILES: CCCCCCCCCCCC(=O)[O][Pt][O]C(=O)CCCCCCCCCCC.NC1CCCCC1N [DACHPt(II)-(Lau)2]
- CR (mice completely cured / total mice tested) (L 1210 leukemia cells; [7]): 0/5
- T/C (mean survival time treated / control) (L 1210 leukemia cells; [7]): 141
- MST (mean survival time) (L 1210 leukemia cells; 57 mg/kg × 2 i.p. in lipiodol, Table III control MST 8.5): 12.0
- CR (mice completely cured / total mice tested) (L 1210 leukemia cells; [8]): 0/5
- T/C (mean survival time treated / control) (L 1210 leukemia cells; [8]): 165
- MST (mean survival time) (L 1210 leukemia cells; 171 mg/kg × 2 i.p. in lipiodol, Table III control MST 8.5): 14.0
- CR (mice completely cured / total mice tested) (L 1210 leukemia cells; [9]): 3/5
- T/C (mean survival time treated / control) (L 1210 leukemia cells; [9]): 471
- MST (mean survival time) (L 1210 leukemia cells; 855 mg/kg × 2 i.p. in lipiodol, Table III control MST 8.5): 40.0

SMILES: CCCCCCCCCCCCCCCCCCCCCCCC(=O)[O][Pt][O]C(=O)CCCCCCCCCCCCCCCCCCCCCCC.NC1CCCCC1N [DACHPt(II)-(Lig)2]
- T/C (mean survival time treated / control) (L 1210 leukemia cells; 50 mg/kg × 2 i.p. in lipiodol, Table I): 150
- MST (mean survival time) (L 1210 leukemia cells; 50 mg/kg × 2 i.p. in lipiodol, Table I control MST 10): 10
- T/C (mean survival time treated / control) (L 1210 leukemia cells; 250 mg/kg × 2 i.p. in lipiodol, Table I): 100
- MST (mean survival time) (L 1210 leukemia cells; 250 mg/kg × 2 i.p. in lipiodol, Table I control MST 10): 10
- T/C (mean survival time treated / control) (L 1210 leukemia cells; 1250 mg/kg × 2 i.p. in lipiodol, Table I): 105
- MST (mean survival time) (L 1210 leukemia cells; 1250 mg/kg × 2 i.p. in lipiodol, Table I control MST 10): 10.5
- CR (mice completely cured / total mice tested) (L 1210 leukemia cells; mouse, in vivo): 0/6

SMILES: CCCCCCCCCCCCCC(=O)[O][Pt][O]C(=O)CCCCCCCCCCCCC.NC1CCCCC1N [DACHPt(II)-(Myr)2]
- T/C (mean survival time treated / control) (L 1210 leukemia cells; 33 mg/kg × 2 i.p. in lipiodol, Table I): 150
- MST (mean survival time) (L 1210 leukemia cells; 33 mg/kg × 2 i.p. in lipiodol, Table I control MST 10): 15.0
- T/C (mean survival time treated / control) (L 1210 leukemia cells; 833 mg/kg, administered only one time, i.p. in lipiodol, Table I): Toxic
- MST (mean survival time) (L 1210 leukemia cells; 833 mg/kg, administered only one time, i.p. in lipiodol, Table I control MST 10): 8.0*^1

SMILES: CCCCCCCC/C=C\CCCCCCCC(=O)[O-].CCCCCCCC/C=C\CCCCCCCC(=O)[O-].NC1CCCCC1N.[Pt+2] [DACHPt(II)-(Ole)2, Cyclohexane-1,2-diammine Platinum (II) Dioleate]
- CR (mice completely cured / total mice tested) (L 1210 leukemia cells; [10]): 0/5
- T/C (mean survival time treated / control) (L 1210 leukemia cells; [10]): 130
- MST (mean survival time) (L 1210 leukemia cells; 25 mg/kg × 2 i.p. in lipiodol, Table I control MST 10): 13.0
- CR (mice completely cured / total mice tested) (L 1210 leukemia cells; [11]): 0/6
- T/C (mean survival time treated / control) (L 1210 leukemia cells; [11]): 170
- MST (mean survival time) (L 1210 leukemia cells; 126 mg/kg × 2 i.p. in lipiodol, Table I control MST 10): 17.0
- CR (mice completely cured / total mice tested) (L 1210 leukemia cells; [12]): 2/7
- T/C (mean survival time treated / control) (L 1210 leukemia cells; [12]): Toxic

SMILES: CCCCCCCCCCCCCCCC(=O)[O][Pt][O]C(=O)CCCCCCCCCCCCCCC.NC1CCCCC1N [DACHPt(II)-(Pal)2]
- T/C (mean survival time treated / control) (L 1210 leukemia cells; 40 mg/kg × 2 i.p. in lipiodol, Table I): 110
- MST (mean survival time) (L 1210 leukemia cells; 40 mg/kg × 2 i.p. in lipiodol, Table I control MST 10): 11
- T/C (mean survival time treated / control) (L 1210 leukemia cells; 198 mg/kg × 2 i.p. in lipiodol, Table I): 115
- MST (mean survival time) (L 1210 leukemia cells; 198 mg/kg × 2 i.p. in lipiodol, Table I control MST 10): 11.5
- T/C (mean survival time treated / control) (L 1210 leukemia cells; 991 mg/kg × 2 i.p. in lipiodol, Table I): 170
- MST (mean survival time) (L 1210 leukemia cells; 991 mg/kg × 2 i.p. in lipiodol, Table I control MST 10): 17
- CR (mice completely cured / total mice tested) (L 1210 leukemia cells; mouse, in vivo): 0/6

SMILES: CCCCCCCCCCCCCCCCCC(=O)[O][Pt][O]C(=O)CCCCCCCCCCCCCCCCC.NC1CCCCC1N [DACHPt(II)-(Ste)2]
- T/C (mean survival time treated / control) (L 1210 leukemia cells; 71 mg/kg × 2 i.p. in lipiodol, Table III): 212
- MST (mean survival time) (L 1210 leukemia cells; 71 mg/kg × 2 i.p. in lipiodol, Table III control MST 8.5): 18.0
- T/C (mean survival time treated / control) (L 1210 leukemia cells; 1060 mg/kg, administered only one time, i.p. in lipiodol, Table III): Toxic
- MST (mean survival time) (L 1210 leukemia cells; 1060 mg/kg, administered only one time, i.p. in lipiodol, Table III control MST 8.5): 7.0*^1
- CR (mice completely cured / total mice tested) (L 1210 leukemia cells; mouse, in vivo): 2/5

SMILES: N.N.O=C([O-])C1(C(=O)[O-])CCC1.[Pt+2] [carboplatin, cis-diammine-1,1-cyclobutane-dicarboxylate platinum (II)]
- water solubility [1]: 17.8 mg/mL

SMILES: NCC1(CN)CCCCC1.O=S(=O)([O-])[O-].[Pt+2] [spiroplatin, cis-1,1-di-(aminomethyl) cyclohexane platinum (II) sulfate]
- water solubility [1]: 1 mg/mL

— patent US6613799B1, “Liposoluble platinum (II) complex and preparation thereof” (priority 1985, dated 2003)
